pIC50, pKi: −log10 of the molar value.

By pIC50 is commonly meant −log10 of the IC50, conventionally taken in molar units. In general, pKi refers to the Ki on a negative log10 scale, so that one unit is a factor of ten. Usually inhibition stands for the percentage by which the read-out fell short of the control.

In assay [1] the target is T1, Lysosomal acid glucosylceramidase (Homo sapiens, UniProt P04062).
T1 sequence (P04062 whole entry): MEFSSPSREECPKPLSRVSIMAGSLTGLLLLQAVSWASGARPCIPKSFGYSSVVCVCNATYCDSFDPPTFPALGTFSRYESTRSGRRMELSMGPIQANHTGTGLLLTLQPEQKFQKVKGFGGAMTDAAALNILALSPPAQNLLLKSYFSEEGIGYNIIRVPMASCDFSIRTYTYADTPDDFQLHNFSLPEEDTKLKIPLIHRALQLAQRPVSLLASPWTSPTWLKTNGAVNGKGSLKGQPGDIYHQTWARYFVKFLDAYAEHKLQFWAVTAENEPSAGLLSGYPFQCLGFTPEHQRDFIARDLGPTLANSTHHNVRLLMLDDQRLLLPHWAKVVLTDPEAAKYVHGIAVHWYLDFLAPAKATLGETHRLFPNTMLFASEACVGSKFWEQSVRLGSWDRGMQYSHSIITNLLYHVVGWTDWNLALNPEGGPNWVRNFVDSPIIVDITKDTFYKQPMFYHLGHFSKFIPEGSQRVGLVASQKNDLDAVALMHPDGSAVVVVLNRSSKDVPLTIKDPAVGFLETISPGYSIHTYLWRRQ
Description: Inhibition of human recombinant beta-glucocerebrosidase assessed as p-nitrophenolate accumulation preincubated for 10 mins before p-nitrophenyl-beta-d-glucopyranoside addition measured after 10 mins by […].

Assay [2] deals with T2, Lysosomal acid glucosylceramidase (Homo sapiens) (UniProt P04062).
T2 sequence (whole entry): T1 sequence (P04062 whole entry)
Description: Inhibition of misfolded beta-glucocerebrosidase in human gaucher cells assessed as increase in enzyme activity at 10 nM. Format: cell-based.

Assay [3] has as its target T2, Lysosomal acid glucosylceramidase (Homo sapiens). Description: Inhibition of human recombinant beta-glucocerebrosidase assessed as p-nitrophenolate accumulation at 1000 uM preincubated for 10 mins before p-nitrophenyl-beta-d-glucopyranoside addition measured after 10 mins by […].

With `CCCCCC[C@H]1NC[C@@H](O)[C@H](O)[C@H]1O`, in assay [1], the pIC50 was 7.72.

Regarding `CCCCCC[C@H]1N[C@@H](CO)[C@@H](O)[C@H](O)[C@H]1O`, in assay [1], the pIC50 was 4.37.

Take `CCCCC1N[C@@H](CO)[C@@H](O)[C@H](O)[C@H]1O` (single isomer, unassigned): in assay [1], the pIC50 is 3.83. On the same count and under the same terms, the same measure for `CCCC1N[C@@H](CO)[C@@H](O)[C@H](O)[C@H]1O` (single isomer, unassigned): 3.31.

As for `CCC[C@H]1NC[C@@H](O)[C@H](O)[C@H]1O`, the pIC50 in assay [1] is 6.25. For `CCCCCCCCC[C@H]1NC[C@@H](O)[C@H](O)[C@H]1O`, the fold change (FC) in assay [2] was 2. Besides, in assay [1], the pKi is 8.66. With `OCC(O)C[C@H]1N[C@@H](CO)[C@@H](O)[C@H](O)[C@H]1O` (stereo partly drawn), the inhibition in assay [3] is less than 50%.
